In PubChem BioAssay (NCI):
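96-well plates; 48 h exposure; 5 concentrations. Endpoints by linear interpolation between flanking doses. Not reached: highest tested concentration assigned. The concentration for full growth arrest is given as TGI.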

Key:
Assay in all cases: DTP human tumour cell line panel, 48 h
786-0 renal = system: 786-0 renal
HOP-92 NSCLC = system: HOP-92 NSCLC
MOLT-4 leukemia = system: MOLT-4 leukemia
U251 CNS = system: U251 CNS
HT29 colon = system: HT29 colon
NCI-H522 lung = system: NCI-H522 lung
HL-60(TB) leukemia = system: HL-60(TB) leukemia
UACC-257 melanoma = system: UACC-257 melanoma
SF-295 CNS = system: SF-295 CNS
K-562 leukemia = system: K-562 leukemia
SR leukemia = system: SR leukemia
HCC-2998 colon = system: HCC-2998 colon
PC-3 prostate = system: PC-3 prostate
SK-MEL-28 melanoma = system: SK-MEL-28 melanoma
SK-OV-3 ovarian = system: SK-OV-3 ovarian
MALME-3M melanoma = system: MALME-3M melanoma
IGROV1 ovarian = system: IGROV1 ovarian
NCI-H460 lung = system: NCI-H460 lung
OVCAR-3 ovarian = system: OVCAR-3 ovarian
T-47D breast = system: T-47D breast
MDA-N = system: MDA-N
KM12 colon = system: KM12 colon
HCT-116 colon = system: HCT-116 colon
SNB-19 CNS = system: SNB-19 CNS
TK-10 renal = system: TK-10 renal
OVCAR-8 ovarian = system: OVCAR-8 ovarian
DU-145 prostate = system: DU-145 prostate
SN12C renal = system: SN12C renal
A549 NSCLC = system: A549 NSCLC
HOP-62 NSCLC = system: HOP-62 NSCLC
SF-539 CNS = system: SF-539 CNS
BT-549 breast = system: BT-549 breast
HCT-15 colon = system: HCT-15 colon
NCI-H23 lung = system: NCI-H23 lung
NCI-H226 lung = system: NCI-H226 lung
NCI/ADR-RES ovarian = system: NCI/ADR-RES ovarian
RPMI-8226 leukemia = system: RPMI-8226 leukemia
HS 578T breast = system: HS 578T breast
SW-620 colon = system: SW-620 colon
MDA-MB-231 breast = system: MDA-MB-231 breast
SF-268 CNS = system: SF-268 CNS
COLO 205 colon = system: COLO 205 colon
OVCAR-5 ovarian = system: OVCAR-5 ovarian
UACC-62 melanoma = system: UACC-62 melanoma
CCRF-CEM leukemia = system: CCRF-CEM leukemia
SK-MEL-5 melanoma = system: SK-MEL-5 melanoma
M14 melanoma = system: M14 melanoma
RXF 393 renal = system: RXF 393 renal
ACHN renal = system: ACHN renal
SNB-75 CNS = system: SNB-75 CNS
MCF7 breast = system: MCF7 breast
EKVX NSCLC = system: EKVX NSCLC
OVCAR-4 ovarian = system: OVCAR-4 ovarian
MDA-MB-435 = system: MDA-MB-435
SK-MEL-2 melanoma = system: SK-MEL-2 melanoma
UO-31 renal = system: UO-31 renal
CAKI-1 renal = system: CAKI-1 renal

**Q.** What does the source list for `Cc1ccn2c(=O)cc(-c3ccccc3)nc2c1`?
**A.** TGI (786-0 renal): > 100 µM; TGI (HOP-92 NSCLC): > 100 µM; TGI (MOLT-4 leukemia): > 100 µM; TGI (U251 CNS): > 100 µM; TGI (HT29 colon): > 100 µM; TGI (NCI-H522 lung): > 100 µM; TGI (HL-60(TB) leukemia): > 100 µM; TGI (UACC-257 melanoma): > 100 µM; TGI (SF-295 CNS): > 100 µM; TGI (K-562 leukemia): > 100 µM; TGI (SR leukemia): > 100 µM; TGI (HCC-2998 colon): > 100 µM; TGI (PC-3 prostate): > 100 µM; TGI (SK-MEL-28 melanoma): > 100 µM; TGI (SK-OV-3 ovarian): > 100 µM; TGI (MALME-3M melanoma): > 100 µM; TGI (IGROV1 ovarian): > 100 µM; TGI (NCI-H460 lung): > 100 µM; TGI (OVCAR-3 ovarian): > 100 µM; TGI (T-47D breast): > 100 µM; TGI (MDA-N): > 100 µM; TGI (KM12 colon): > 100 µM; TGI (HCT-116 colon): > 100 µM; TGI (SNB-19 CNS): > 100 µM; TGI (TK-10 renal): > 100 µM; TGI (OVCAR-8 ovarian): > 100 µM; TGI (DU-145 prostate): > 100 µM; TGI (SN12C renal): > 100 µM; TGI (A549 NSCLC): > 100 µM; TGI (HOP-62 NSCLC): > 100 µM; TGI (SF-539 CNS): > 100 µM; TGI (BT-549 breast): > 100 µM; TGI (HCT-15 colon): > 100 µM; TGI (NCI-H23 lung): > 100 µM; TGI (NCI-H226 lung): > 100 µM; TGI (NCI/ADR-RES ovarian): > 100 µM; TGI (RPMI-8226 leukemia): > 100 µM; TGI (HS 578T breast): > 100 µM; TGI (SW-620 colon): > 100 µM; TGI (MDA-MB-231 breast): > 100 µM; TGI (SF-268 CNS): > 100 µM; TGI (COLO 205 colon): > 100 µM; TGI (OVCAR-5 ovarian): > 100 µM; TGI (UACC-62 melanoma): > 100 µM; TGI (CCRF-CEM leukemia): > 100 µM; TGI (SK-MEL-5 melanoma): > 100 µM; TGI (M14 melanoma): > 100 µM; TGI (RXF 393 renal): > 100 µM; TGI (ACHN renal): > 100 µM; TGI (SNB-75 CNS): > 100 µM; TGI (MCF7 breast): > 100 µM; TGI (EKVX NSCLC): > 100 µM; TGI (OVCAR-4 ovarian): > 100 µM

**Q.** With `CCOC(=O)c1ccc(N2C(=S)N(C(=O)c3ccccc3)C(=Nc3ccccc3)C2=Nc2ccccc2)cc1` as the molecule, how does the TGI (MDA-MB-435) read?
**A.** The TGI was greater than 100 µM.

**Q.** What about the TGI (786-0 renal) of the same molecule?
**A.** Its TGI is greater than 100 µM.

**Q.** What about the TGI (HOP-92 NSCLC) of the same molecule?
**A.** The TGI was 78.7 µM.

**Q.** What about the TGI (SK-MEL-2 melanoma) of the same molecule?
**A.** Its TGI is greater than 100 µM.

**Q.** What about the TGI (U251 CNS) of the same molecule?
**A.** The TGI was greater than 100 µM.

**Q.** And the TGI (HT29 colon)?
**A.** Its TGI is greater than 100 µM.

**Q.** And the TGI (NCI-H522 lung)?
**A.** The TGI was greater than 100 µM.

**Q.** What about the TGI (UACC-257 melanoma) of the same molecule?
**A.** Its TGI is greater than 100 µM.

**Q.** What about the TGI (SF-295 CNS) of the same molecule?
**A.** The TGI was greater than 100 µM.

**Q.** What about the TGI (K-562 leukemia) of the same molecule?
**A.** Its TGI is greater than 100 µM.

**Q.** What about the TGI (SR leukemia) of the same molecule?
**A.** The TGI was greater than 100 µM.

**Q.** What about the TGI (HCC-2998 colon) of the same molecule?
**A.** Its TGI is greater than 100 µM.

**Q.** And the TGI (PC-3 prostate)?
**A.** The TGI was greater than 100 µM.

**Q.** And the TGI (SK-MEL-28 melanoma)?
**A.** Its TGI is greater than 100 µM.

**Q.** What about the TGI (SK-OV-3 ovarian) of the same molecule?
**A.** Its TGI is greater than 100 µM.

**Q.** And the TGI (UO-31 renal)?
**A.** The TGI was greater than 100 µM.

**Q.** What about the TGI (MALME-3M melanoma) of the same molecule?
**A.** Its TGI is greater than 100 µM.

**Q.** And the TGI (IGROV1 ovarian)?
**A.** The TGI was greater than 100 µM.

**Q.** And the TGI (NCI-H460 lung)?
**A.** Its TGI is greater than 100 µM.

**Q.** What about the TGI (OVCAR-3 ovarian) of the same molecule?
**A.** Its TGI is greater than 100 µM.

**Q.** What about the TGI (MDA-N) of the same molecule?
**A.** Its TGI is greater than 100 µM.

**Q.** What about the TGI (KM12 colon) of the same molecule?
**A.** Its TGI is greater than 100 µM.

**Q.** And the TGI (SNB-19 CNS)?
**A.** The TGI was greater than 100 µM.

**Q.** And the TGI (TK-10 renal)?
**A.** The TGI was greater than 100 µM.

**Q.** What about the TGI (OVCAR-8 ovarian) of the same molecule?
**A.** The TGI was greater than 100 µM.

**Q.** What about the TGI (DU-145 prostate) of the same molecule?
**A.** Its TGI is greater than 100 µM.

**Q.** What about the TGI (SN12C renal) of the same molecule?
**A.** The TGI was greater than 100 µM.

**Q.** And the TGI (A549 NSCLC)?
**A.** Its TGI is greater than 100 µM.

**Q.** And the TGI (HOP-62 NSCLC)?
**A.** The TGI was greater than 100 µM.

**Q.** What about the TGI (SF-539 CNS) of the same molecule?
**A.** The TGI was greater than 100 µM.

**Q.** What about the TGI (BT-549 breast) of the same molecule?
**A.** The TGI was greater than 100 µM.

**Q.** What about the TGI (HCT-15 colon) of the same molecule?
**A.** Its TGI is greater than 100 µM.

**Q.** And the TGI (NCI-H23 lung)?
**A.** Its TGI is greater than 100 µM.

**Q.** What about the TGI (NCI-H226 lung) of the same molecule?
**A.** The TGI was 52.7 µM.

**Q.** What about the TGI (NCI/ADR-RES ovarian) of the same molecule?
**A.** The TGI was greater than 100 µM.

**Q.** What about the TGI (RPMI-8226 leukemia) of the same molecule?
**A.** The TGI was greater than 100 µM.

**Q.** And the TGI (HS 578T breast)?
**A.** Its TGI is greater than 100 µM.

**Q.** And the TGI (SW-620 colon)?
**A.** The TGI was greater than 100 µM.

**Q.** What about the TGI (SF-268 CNS) of the same molecule?
**A.** The TGI was greater than 100 µM.

**Q.** What about the TGI (CAKI-1 renal) of the same molecule?
**A.** The TGI was greater than 100 µM.

**Q.** What about the TGI (OVCAR-5 ovarian) of the same molecule?
**A.** Its TGI is greater than 100 µM.

**Q.** And the TGI (UACC-62 melanoma)?
**A.** The TGI was greater than 100 µM.

**Q.** And the TGI (SK-MEL-5 melanoma)?
**A.** Its TGI is greater than 100 µM.

**Q.** What about the TGI (M14 melanoma) of the same molecule?
**A.** Its TGI is greater than 100 µM.

**Q.** And the TGI (ACHN renal)?
**A.** The TGI was greater than 100 µM.

**Q.** And the TGI (SNB-75 CNS)?
**A.** The TGI was 74.6 µM.

**Q.** What about the TGI (MCF7 breast) of the same molecule?
**A.** The TGI was greater than 100 µM.

**Q.** What about the TGI (EKVX NSCLC) of the same molecule?
**A.** Its TGI is greater than 100 µM.
